# Experimental data: US6645970B2, “Indolylmaleimide derivatives” (Novartis AG, priority 2000, dated 2003)
# How the values were obtained:
# Human recombinant PKCθ = Human recombinant PKCθ (Homo sapiens, UniProt Q04759); assay: Protein Kinase C θ Assay; format: biochemical; conditions: 10 μM ATP
# Description: Human recombinant PKCθ is used under the assay conditions as described above.
# [1] = test system: Jurkat cells transfected with a human interleukin-2 promoter/reporter gene construct; assay: CD28 costimulation assay; format: cell-based; conditions: stimulated Jurkat cells, IL-2 promoter luciferase reporter, 5.5 hours
# [2] = test system: spleen cells from CBA and BALB/c mice; assay: Allogeneic Mixed Lymphocyte Reaction (MLR); format: cell-based; conditions: Mus musculus, two-way MLR, 3H-thymidine incorporation
# Method: The two-way MLR is performed according to standard procedures (J. Immunol. Methods, 1973, 2, 279 and Meo T. et al., Immunological Methods, New York, Academic Press, 1979, 227-39). Briefly, spleen cells from CBA and BALB/c mice (1.6×10^5 cells from each strain per well in flat bottom tissue culture microtiter plates, 3.2×10^5 in total) are incubated in RPMI medium containing 10% FCS, 100 U/ml penicillin, 100 μg/mI streptomycin (Gibco BRL, Basel, Switzerland), 50 μM 2-mercaptoethanol (Fluka, Buchs, Switzerland) and serially diluted compounds. Seven three-fold dilution steps in duplicates per test compound are performed. After four days of incubation 1 μCi ^3H-thymidine is added. Cells are harvested after an additional five-hour incubation period, and incorporated ^3H-thymidine is determined according to standard procedures. Background values (low control) of the MLR are the proliferation of BALB/c cells alone. Low controls are subtracted from all values. High controls without any sample are taken as 100% proliferation. Percent inhibition by the samples is calculated, and the concentrations required for 50% inhibition (IC50 values) are determined.
# Human recombinant PKCβ1 = biological target: T1, Human recombinant PKCβ1 (Homo sapiens, UniProt P05771); assay: Protein Kinase Cβ1 Assay; format: biochemical; conditions: human recombinant PKCβ1, 10 μM ATP
# T1 construct: purchased Oxford Biomedical Research
# T1 sequence (P05771 whole entry): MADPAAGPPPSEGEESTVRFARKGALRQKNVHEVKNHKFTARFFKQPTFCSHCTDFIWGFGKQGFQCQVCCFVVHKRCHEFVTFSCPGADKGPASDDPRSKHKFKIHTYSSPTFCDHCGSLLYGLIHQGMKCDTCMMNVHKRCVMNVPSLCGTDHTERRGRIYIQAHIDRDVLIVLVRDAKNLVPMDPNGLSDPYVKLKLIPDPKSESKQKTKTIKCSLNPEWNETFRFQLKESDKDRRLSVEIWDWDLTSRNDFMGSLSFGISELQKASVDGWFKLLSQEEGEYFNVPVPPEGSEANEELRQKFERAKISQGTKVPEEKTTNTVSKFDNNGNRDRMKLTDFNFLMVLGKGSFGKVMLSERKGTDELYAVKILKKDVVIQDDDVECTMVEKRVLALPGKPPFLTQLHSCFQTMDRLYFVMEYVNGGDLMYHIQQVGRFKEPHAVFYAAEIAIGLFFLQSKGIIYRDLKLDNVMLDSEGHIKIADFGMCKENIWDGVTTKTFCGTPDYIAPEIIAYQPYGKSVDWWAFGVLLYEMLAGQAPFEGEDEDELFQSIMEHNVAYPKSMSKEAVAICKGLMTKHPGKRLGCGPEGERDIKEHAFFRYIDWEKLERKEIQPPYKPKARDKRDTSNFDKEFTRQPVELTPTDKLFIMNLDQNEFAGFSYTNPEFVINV
# Method: (§1) The compounds of formula I are tested for their activity on different PKC isoforms according to a published method (D. Geiges et al. Biochem. Pharmacol. 1997;53:865-875) The assay is performed in a 96-well polypropylene microtiterplate (Costar 3794) that has been previously siliconized with Sigmacote (Sigma SL-2). The reaction mixture (50 μl) contains 10 μl the relevant PKC isozyme together with 25 μl of the test compound and 15 μl of a mix solution that contains 200 μg/ml protamine sulfate, 10 mM Mg(NO3)2, 10 μM ATP (Boehringer 519987) and 3750 Bq of ^33P-ATP (Hartmann Analytic SFC301, 110TBq/mmol) in 20 mM Tris-buffer pH 7.4+0.1% BSA. Incubation is performed for 15 min at 32° C. in a microtiterplate shaking incubator (Biolabo Scientific Instruments). Reaction is stopped by adding 10 μl of 0.5 M Na2EDTA, pH 7.4. 50 μl of mixture are pipetted onto a pre-wetted phosphocellulose paper (Whatmann 3698-915) under gentle pressure. Non-incorporated ATP is washed away with 100 μl bi-dist H2O. The paper is washed twice in 0.5% H3PO4 for 15 min followed by 5 min in EtOH. Thereafter the paper is dryed and placed in an omnifilter (Packard 6005219), and overlayed with 10 μl/well of Microscint-O (Packard 6013611) before counting in a Topcount radioactivity counter (Packard). […] IC50 value are calculated from the graph by sigmoidal curve fitting. […]
# Human recombinant PKCη = biological target: T2, Human recombinant PKCη (Homo sapiens, UniProt P24723); assay: Protein Kinase Cη Assay; format: biochemical; conditions: 10 μM ATP
# T2 construct: purchased PanVera
# T2 sequence (P24723 whole entry): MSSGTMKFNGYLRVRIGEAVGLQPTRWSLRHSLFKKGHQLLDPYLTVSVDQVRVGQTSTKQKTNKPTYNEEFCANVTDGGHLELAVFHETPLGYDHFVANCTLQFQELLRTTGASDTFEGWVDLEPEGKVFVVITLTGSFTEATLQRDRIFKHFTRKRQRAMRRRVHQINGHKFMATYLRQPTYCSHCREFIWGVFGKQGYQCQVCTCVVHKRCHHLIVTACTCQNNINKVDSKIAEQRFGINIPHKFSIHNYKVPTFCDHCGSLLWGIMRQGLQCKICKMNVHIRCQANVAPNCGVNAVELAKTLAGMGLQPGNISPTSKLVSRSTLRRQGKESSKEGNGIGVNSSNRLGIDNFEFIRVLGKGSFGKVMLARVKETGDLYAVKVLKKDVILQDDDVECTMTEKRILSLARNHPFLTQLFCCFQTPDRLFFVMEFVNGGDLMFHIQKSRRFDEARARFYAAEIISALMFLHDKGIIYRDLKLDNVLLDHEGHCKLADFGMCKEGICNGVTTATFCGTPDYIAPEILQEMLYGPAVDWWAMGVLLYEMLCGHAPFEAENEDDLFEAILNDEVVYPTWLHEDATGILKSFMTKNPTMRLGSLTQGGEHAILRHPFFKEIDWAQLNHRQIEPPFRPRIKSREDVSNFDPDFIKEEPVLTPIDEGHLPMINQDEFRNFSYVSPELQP
# Method: as §1
# Human recombinant PKCε = biological target: T3, Human recombinant PKCε (Homo sapiens, UniProt Q02156); assay: Protein Kinase Cε Assay; format: biochemical; conditions: 10 μM ATP
# T3 construct: purchased Oxford Biomedical Research
# T3 sequence (Q02156 1-737): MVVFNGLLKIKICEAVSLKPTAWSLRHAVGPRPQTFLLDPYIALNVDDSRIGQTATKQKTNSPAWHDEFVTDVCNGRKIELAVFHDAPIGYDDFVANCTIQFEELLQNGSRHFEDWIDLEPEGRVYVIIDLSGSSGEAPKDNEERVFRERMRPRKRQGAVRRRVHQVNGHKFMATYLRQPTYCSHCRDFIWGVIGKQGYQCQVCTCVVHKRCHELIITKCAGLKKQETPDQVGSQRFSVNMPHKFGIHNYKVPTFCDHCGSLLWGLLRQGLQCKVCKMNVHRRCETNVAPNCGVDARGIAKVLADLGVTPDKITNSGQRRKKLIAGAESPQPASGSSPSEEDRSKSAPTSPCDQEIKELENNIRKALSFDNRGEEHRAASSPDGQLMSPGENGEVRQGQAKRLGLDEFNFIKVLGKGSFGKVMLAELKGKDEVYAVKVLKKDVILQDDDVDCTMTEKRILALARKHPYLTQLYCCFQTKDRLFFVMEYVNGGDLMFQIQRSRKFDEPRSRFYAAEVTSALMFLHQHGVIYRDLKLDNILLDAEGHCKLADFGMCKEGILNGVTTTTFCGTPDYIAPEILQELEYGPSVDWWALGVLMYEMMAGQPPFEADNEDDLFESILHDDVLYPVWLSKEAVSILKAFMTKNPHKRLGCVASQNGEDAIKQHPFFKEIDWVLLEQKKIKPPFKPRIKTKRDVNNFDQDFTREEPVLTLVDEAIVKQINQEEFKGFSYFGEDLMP
# Method: as §1
# Human recombinant PKCα = biological target: T4, Human recombinant PKCα (Homo sapiens, UniProt P17252); assay: Protein Kinase Cα Assay; format: biochemical; conditions: 10 μM ATP
# T4 construct: purchased Oxford Biomedical Research
# Method: The compounds of formula I are tested for their activity on different PKC isoforms according to a published method (D. Geiges et al. Biochem. Pharmacol. 1997;53:865-875) The assay is performed in a 96-well polypropylene microtiterplate (Costar 3794) that has been previously siliconized with Sigmacote (Sigma SL-2). The reaction mixture (50 μl) contains 10 μl the relevant PKC isozyme together with 25 μl of the test compound and 15 μl of a mix solution that contains 200 μg/ml protamine sulfate, 10 mM Mg(NO3)2, 10 μM ATP (Boehringer 519987) and 3750 Bq of ^33P-ATP (Hartmann Analytic SFC301, 110TBq/mmol) in 20 mM Tris-buffer pH 7.4+0.1% BSA. Incubation is performed for 15 min at 32° C. in a microtiterplate shaking incubator (Biolabo Scientific Instruments). Reaction is stopped by adding 10 μl of 0.5 M Na2EDTA, pH 7.4. 50 μl of mixture are pipetted onto a pre-wetted phosphocellulose paper (Whatmann 3698-915) under gentle pressure. Non-incorporated ATP is washed away with 100 μl bi-dist H2O. The paper is washed twice in 0.5% H3PO4 for 15 min followed by 5 min in EtOH. Thereafter the paper is dryed and placed in an omnifilter (Packard 6005219), and overlayed with 10 μl/well of Microscint-O (Packard 6013611) before counting in a Topcount radioactivity counter (Packard). […] IC50 value are calculated from the graph by sigmoidal curve fitting.
# [3] = test system: Rat Heart transplantation (graft survival); assay: Rat Heart transplantation; format: in vivo; conditions: Lewis and BN strains, 30 mg/kg/day
# Method: The strain combination used: Male Lewis (RT^1 haplotype) and BN (RT^1 haplotype). The animals are anaesthetised using inhalational isofluorane. […] The aorta is ligated and divided distal to the first branch and the brachiocephalic trunk is divided at the first bifurcation. The left pulmonary artery is ligated and divided and the right side divided but left open. All other vessels are dissected free, ligated and divided and the donor heart is removed into iced saline.
# The recipient is prepared by dissection and cross-clamping of the infra-renal abdominal aorta and vena cava. The graft is implanted with end-to-side anastomoses, using 10/0 monofilament suture, between the donor brachiocephalic trunk and the recipient aorta and the donor right pulmonary artery to the recipient vena cava. The clamps are removed, the graft tethered retroabdominally, the abdominal contents washed with warm saline and the animal is closed and allowed to recover under a heating lamp. Graft survival is monitored by daily palpation of the beating donor heart through the abdominal wall. Rejection is considered to be complete when heart beat stops. Increases of graft survival are obtained in animals treated with a compound of formula I administered orally at a daily dose of 1 to 30 mg/kg.
# Human recombinant PKCδ = biological target: T5, Human recombinant PKCδ (Homo sapiens, UniProt Q05655); assay: Protein Kinase Cδ Assay; format: biochemical; conditions: 10 μM ATP
# T5 construct: purchased Oxford Biomedical Research
# T5 sequence (Q05655 whole entry): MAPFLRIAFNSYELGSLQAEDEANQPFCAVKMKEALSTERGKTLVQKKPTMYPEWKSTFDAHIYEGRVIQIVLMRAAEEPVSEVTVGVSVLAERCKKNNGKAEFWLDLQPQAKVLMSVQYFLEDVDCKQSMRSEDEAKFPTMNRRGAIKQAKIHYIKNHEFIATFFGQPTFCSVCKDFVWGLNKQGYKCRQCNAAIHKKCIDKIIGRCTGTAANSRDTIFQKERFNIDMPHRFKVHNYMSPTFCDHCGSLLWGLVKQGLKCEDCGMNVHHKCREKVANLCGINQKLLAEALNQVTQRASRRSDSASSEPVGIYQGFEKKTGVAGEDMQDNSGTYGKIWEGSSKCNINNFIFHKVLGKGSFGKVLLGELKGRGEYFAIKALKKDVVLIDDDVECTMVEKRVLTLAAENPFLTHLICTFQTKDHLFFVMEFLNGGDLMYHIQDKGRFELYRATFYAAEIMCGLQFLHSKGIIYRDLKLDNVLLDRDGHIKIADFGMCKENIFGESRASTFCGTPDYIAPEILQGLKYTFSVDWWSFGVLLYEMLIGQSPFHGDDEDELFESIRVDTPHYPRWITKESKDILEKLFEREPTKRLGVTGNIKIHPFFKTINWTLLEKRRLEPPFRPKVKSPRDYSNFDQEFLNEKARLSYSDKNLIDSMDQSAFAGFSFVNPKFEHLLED
# Method: as §1
# Sequence of Human recombinant PKCθ (Q04759 whole entry): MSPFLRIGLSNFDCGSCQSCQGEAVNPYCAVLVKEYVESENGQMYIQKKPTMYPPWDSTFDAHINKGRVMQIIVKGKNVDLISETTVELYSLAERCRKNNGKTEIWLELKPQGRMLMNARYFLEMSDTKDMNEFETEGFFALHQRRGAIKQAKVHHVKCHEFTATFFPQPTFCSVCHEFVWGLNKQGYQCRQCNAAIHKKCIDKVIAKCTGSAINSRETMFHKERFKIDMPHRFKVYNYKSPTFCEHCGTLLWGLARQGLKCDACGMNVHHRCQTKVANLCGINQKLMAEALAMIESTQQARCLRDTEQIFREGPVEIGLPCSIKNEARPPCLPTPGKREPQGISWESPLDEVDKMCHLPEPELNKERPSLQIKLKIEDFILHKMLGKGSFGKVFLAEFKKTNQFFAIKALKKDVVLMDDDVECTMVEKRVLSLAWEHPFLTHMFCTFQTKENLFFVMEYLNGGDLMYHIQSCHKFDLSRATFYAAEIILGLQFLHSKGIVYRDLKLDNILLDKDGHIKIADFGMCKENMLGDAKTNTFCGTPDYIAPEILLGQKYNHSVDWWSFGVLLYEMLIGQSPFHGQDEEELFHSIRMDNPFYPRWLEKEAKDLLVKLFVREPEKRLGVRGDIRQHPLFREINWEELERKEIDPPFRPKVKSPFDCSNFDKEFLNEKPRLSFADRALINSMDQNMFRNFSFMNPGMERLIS
structure (smiles),measurement,setting,value
"CN1CCN(c2nc(C3=C(c4c[nH]c5ccccc45)C(=O)NC3=O)c3ccccc3n2)CC1 [Example 56, 3-(1.H.-indol-3-yl)-4-[2-(4-methyl-piperazin-1-yl)-quinazolin-4-yl]-pyrrole-2,5-dione]",IC50,Human recombinant PKCθ,< 10 nM
same,IC50,[1],42 ± 12 nM
same,IC50,[2],168 ± 20 nM
"CN1CCN(c2cc(C3=C(c4c[nH]c5ccccc45)C(=O)NC3=O)c3ccccc3n2)CC1 [Example 163, 3-(1.H.-indol-3-yl)-4-[2-(4-methyl-piperazin-1-yl)-quinolin-4-yl]-pyrrole-2,5-dione]",IC50,Human recombinant PKCβ1,8 ± 2 nM
CC(C)N1CCN(c2nc(C3=C(c4c[nH]c5ccccc45)C(=O)NC3=O)c3ccccc3n2)CC1 [Example 85],IC50,Human recombinant PKCη,50 ± 9 nM
Cc1cccc2c(C3=C(c4nc(N5CCN(C)CC5)nc5ccccc45)C(=O)NC3=O)c[nH]c12 [Example 139],IC50,Human recombinant PKCε,20 ± 7 nM
Cn1cc(C2=C(c3nc(N4CCNC5(CC5)C4)nc4ccccc34)C(=O)NC2=O)c2ccccc21 [Example 100],IC50,Human recombinant PKCα,39 ± 15 nM
same,graft survival,[3],significantly increases the graft survival
"CN1CCN(c2cc3ccccc3c(C3=C(c4c[nH]c5ccccc45)C(=O)NC3=O)n2)CC1 [Example 181, 3-(1.H.-Indol-3-yl)-4-[3-(4-methyl-piperazin-1-yl)-isoquinolin-1-yl]-pyrrole-2,5-dione]",IC50,Human recombinant PKCδ,18 ± 8 nM
